Measurements reported in patent US11533913B2, “Treating water stress in plants” (Rothamsted Research Limited, priority 2015, dated 2022).

Experiments:
[1] = system: Spring wheat (Triticum aestivum Cadenza); test: Resurrection response: regrowth of new tissue from plants cut back after drought treatment; format: in vivo; conditions: one application of 1 mM one day prior to re-watering, cut at 5 days after re-watering, left to regrow for 10 days
Procedure: (§1) Spring wheat (Triticum aestivum Cadenza) seeds were sown in Rothamsted Prescription Compost Mix (75% medium grade (L+P) peat, 12% screened sterilised loam, 3% medium grade vermiculite, 10% grit (lime-free), 3.5 kg Osmocote Exact 3-4 month/m^3 (Scott's UK Professional, Ipswich, Suffolk, www.scottinternational.com), 0.5 kg PG mix/m^3 (Hydro Agri Ltd., Immingham, UK), Wetting agent and Lime) and grown in controlled environment conditions with a photoperiod of 16 hours light, 8 hours dark, day/night temperatures of 20° C./16° C., photon flux density of 600 μmol m^−2 s^−1, and ambient relative humidity. Once the plants had reached Feekes stage 4, water was withheld for 10 days. On the 9th day, 30 ml 1 mM solutions of oNPE-T6P and DMNBT6P were applied to all above-ground biomass, on the 10th day the watering schedule was reinstated. Plants were harvested to measure biomass production every 5 days for 30 days after watering was reinstated. Both experiments were completed in replicates of 6.
Analysis of Variance (ANOVA) was applied to data to test for differences between treatments. A natural log transformation was used where necessary to ensure constant variance. The GENSTAT statistical system was used for this analysis (2011, 14th edition, ©VSN International Ltd, Hemel Hempstead, UK). […]

[2] = system: Spring wheat (Triticum aestivum Cadenza); test: Recovery response: regrowth (biomass) of water stressed wheat plants after re-watering; format: in vivo; conditions: 4-week-old wheat plants sprayed once with 30 mL of 1 mM after 9 days of drought; watering resumed 1 day after treatment
Procedure: as §1
Analysis of Variance (ANOVA) was applied to data to test for differences between treatments. A natural log transformation was used where necessary to ensure constant variance. The GENSTAT statistical system was used for this analysis (2011, 14th edition, ©VSN International Ltd, Hemel Hempstead, UK).
The effect of the signalling precursors upon plant resilience and recovery were tested. Drought is still the biggest global factor that limits crop yields, even in developed countries, such as the UK (Boyer, 1982, Science 218: 443-448).

SMILES	regrowth (resurrection response) of new tissue from plants cut back after drought treatment [1]	regrowth (recovery response) following resumption of watering [2]
O=P(O)(O)OC[C@H]1O[C@H](O[C@H]2O[C@H](CO)[C@@H](O)[C@H](O)[C@H]2O)[C@H](O)[C@@H](O)[C@@H]1O [Compound T6P, trehalose 6-phosphate]	identical results to use of water alone	identical results to use of water alone
COc1cc(COP(=O)(OCc2cc(OC)c(OC)cc2[N+](=O)[O-])OC[C@H]2O[C@H](O[C@H]3O[C@H](CO)[C@@H](O)[C@H](O)[C@H]3O)[C@H](O)[C@@H](O)[C@@H]2O)c([N+](=O)[O-])cc1OC [DMNB-T6P 2, 6-O-bis-(4,5-dimethoxy-2-nitrobenzyloxyphosphoryl)-D-trehalose]	–	the effects were dramatic
CC(OP(=O)(OC[C@H]1O[C@H](O[C@H]2O[C@H](CO)[C@@H](O)[C@H](O)[C@H]2O)[C@H](O)[C@@H](O)[C@@H]1O)OC(C)c1ccccc1[N+](=O)[O-])c1ccccc1[N+](=O)[O-] (stereo partly drawn) [oNPE-T6P 3, 6-O-bis[1-(2-nitrophenyl)-ethoxyphosphoryl]-D-trehalose]	–	the effects were dramatic
